We go through 11 compounds from ChEMBL document CHEMBL1201862, “PubChem BioAssay data set” (2004).

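96-well plates; 48 h exposure; 5 concentrations. Endpoints by linear interpolation between flanking doses. Not reached: highest tested concentration assigned. GI50: concentration for 50% inhibition of growth.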 Active and inactive are the calls of the source. No stated cut-off is given here; in the data, active = GI50 up to about 1.1 µM and inactive = higher. Where only a bound is given, the exact number is not on record here.

Test systems include A498; A549; CAKI-1; HCC 2998; HCT-116; HCT-15; HOP-92; KM12; MCF7; NCI-H226; NCI-H460; NCI-H522; OVCAR-8; SF-539; SN12C; SNB-19; SNB-75; SW-620; UACC-257; UO-31.
Test in all cases: DTP human tumour cell line panel, 48 h

For orientation: GI50 means the concentration giving 50% growth inhibition.

For the compound `c1ccc2cc3c(cc2c1)OP1(Oc2cccc4cccnc24)(O3)Oc2cc3ccccc3cc2O1`, the GI50 is 18.2 µM (inactive) in the experiment with A498; 5.9 µM (inactive) in the experiment on A549; 4.88 µM (inactive) with CAKI-1; 8.59 µM (inactive) in the experiment with HCC 2998; 3.24 µM (inactive) in the experiment on HCT-116; 3.05 µM in the experiment with HCT-15. For the same compound, the GI50 in the experiment on HOP-92 was 3.57 µM (inactive); in the experiment with KM12, 5.31 µM (inactive); in the experiment on MCF7, 1.13 µM (inactive); in the experiment with NCI-H226, 9.89 µM (inactive); with NCI-H460, 2.52 µM (inactive); in the experiment with NCI-H522 it was 2.39 µM (inactive). For the same compound, the GI50 with OVCAR-8 was 3.56 µM (inactive); in the experiment with SF-539, 6.15 µM (inactive); in the experiment on SN12C, 14.8 µM (inactive); with SNB-19, 24.3 µM (inactive); with SNB-75, 18.6 µM (inactive); in the experiment on SW-620, 2.81 µM (inactive). Also, the GI50 in the experiment with UACC-257 is 2.69 µM (inactive); in the experiment with UO-31, 5.01 µM (inactive).

Turning to `CC(C)N/C(N)=N/C#N`, the GI50 was > 100 µM (inactive) in the experiment on A498; > 100 µM (inactive) with A549; > 100 µM (inactive) with CAKI-1; > 100 µM (inactive) with HCC 2998; > 100 µM (inactive) in the experiment with HCT-116; > 100 µM with HCT-15. In addition, the GI50 in the experiment with KM12, in the experiment on NCI-H226, with NCI-H460, with NCI-H522, with OVCAR-8 and with SF-539 was > 100 µM (inactive) throughout. The GI50 in the experiment on SN12C, with SNB-19, in the experiment on SNB-75, in the experiment on SW-620, with UACC-257 and with UO-31 was > 100 µM (inactive) throughout.

Regarding `COC(=O)N1CC2C3C4CC(C(c5ccccc5)=C4c4ccccc4)C3C21` (stereo not given), the GI50 in the experiment on A549 was 18 µM (inactive); with CAKI-1 it was 12.6 µM (inactive); in the experiment on HCC 2998, 16.3 µM (inactive); in the experiment on HCT-116, 11.9 µM (inactive); with HOP-92 it was 11.7 µM (inactive); in the experiment on KM12 it was 14.6 µM (inactive). Also, the GI50 was 20 µM (inactive) with MCF7; 14 µM (inactive) with NCI-H226; 14.5 µM (inactive) with NCI-H460; 17.8 µM (inactive) with OVCAR-8; 13.8 µM (inactive) in the experiment on SF-539; 17.6 µM (inactive) in the experiment with SN12C. Further, the GI50 in the experiment with SNB-19 was 21.1 µM (inactive); in the experiment with SNB-75, 21.8 µM (inactive); with SW-620, 18.1 µM (inactive); in the experiment on UACC-257 it was 13.7 µM (inactive); with UO-31 it was 12.8 µM (inactive).

With `CCC(/C=C/c1ccccc1)=N\Nc1ccc(Cl)c(Cl)c1`, the GI50 in the experiment on A549 was 39.7 µM (inactive); with CAKI-1, 34.9 µM (inactive); with HCC 2998, 25.9 µM (inactive); in the experiment on HCT-116, 23.7 µM (inactive); with HCT-15, 29.7 µM; in the experiment with HOP-92, 13.6 µM (inactive). The GI50 is 29.3 µM (inactive) in the experiment with KM12; 28.7 µM (inactive) in the experiment on MCF7; 21.5 µM (inactive) in the experiment on NCI-H226; 33.3 µM (inactive) in the experiment with NCI-H460; 18.5 µM (inactive) in the experiment with NCI-H522; 16 µM (inactive) with OVCAR-8. For the same compound, the GI50 was 25.8 µM (inactive) in the experiment on SF-539; 24.4 µM (inactive) with SN12C; 52.1 µM (inactive) in the experiment on SNB-19; 41.3 µM (inactive) in the experiment with SNB-75; 33 µM (inactive) with SW-620; 31.6 µM (inactive) in the experiment on UACC-257. The GI50 in the experiment on UO-31 was 21.4 µM (inactive).

`Cc1ccc(C(=O)N/N=C(\N=N\c2ccc([N+](=O)[O-])cc2)c2ccc(N(CCC#N)CCC#N)cc2C)cc1`: the GI50 is 64.9 µM (inactive) in the experiment on A498; 70.1 µM (inactive) in the experiment with A549; > 100 µM (inactive) in the experiment on CAKI-1; 54.1 µM (inactive) with HCC 2998; 54.8 µM (inactive) in the experiment with HCT-116; > 100 µM in the experiment on HCT-15. For the same compound, the GI50 with HOP-92 is > 100 µM (inactive); in the experiment on KM12, 39.5 µM (inactive); in the experiment on MCF7 it was 83.6 µM (inactive); with NCI-H226 it was 31.3 µM (inactive); in the experiment on NCI-H460, 79.3 µM (inactive); in the experiment with OVCAR-8, 28.1 µM (inactive). In addition, the GI50 with SF-539 is > 100 µM (inactive); in the experiment on SN12C, > 100 µM (inactive); in the experiment with SNB-19 it was > 100 µM (inactive); with SNB-75, 43.7 µM (inactive); in the experiment on SW-620, > 100 µM (inactive); in the experiment on UACC-257 it was 77.6 µM (inactive). The GI50 in the experiment with UO-31 is 86.7 µM (inactive).

For the compound `Cc1ccccc1NC(=O)C(=O)C(C1OC(=O)c2ccccc21)[N+](=O)[O-]` (stereo not given), the GI50 in the experiment on A498 was > 100 µM (inactive); in the experiment on A549 it was > 100 µM (inactive); in the experiment on CAKI-1 it was > 100 µM (inactive); in the experiment on HCC 2998, > 100 µM (inactive); in the experiment with HCT-116, > 100 µM (inactive); in the experiment with HCT-15 it was > 100 µM. Further, the GI50 is > 100 µM (inactive) with HOP-92; > 100 µM (inactive) in the experiment with KM12; > 100 µM (inactive) in the experiment on NCI-H226; > 100 µM (inactive) in the experiment on NCI-H460; 56.9 µM (inactive) in the experiment with NCI-H522; > 100 µM (inactive) with OVCAR-8. For the same compound, the GI50 in the experiment on SF-539, in the experiment on SN12C, in the experiment on SNB-19, in the experiment with SNB-75, with SW-620 and in the experiment with UACC-257 was > 100 µM (inactive) throughout. Further, the GI50 with UO-31 is > 100 µM (inactive).

`O=C1OCc2cccc3c2-c2c1cccc2C(=O)OC3`: the GI50 in the experiment on CAKI-1 is > 100 µM (inactive); in the experiment on HCC 2998 it was > 100 µM (inactive); in the experiment on HCT-116 it was > 100 µM (inactive); in the experiment with HCT-15, > 100 µM; in the experiment on HOP-92, 38.5 µM (inactive); in the experiment on KM12, > 100 µM (inactive). In addition, the GI50 with OVCAR-8, with SF-539, with SNB-19 and in the experiment on UO-31 was > 100 µM (inactive) throughout.

In the case of `BrC1=CN2C[n+]3cc(Br)c4ccccc4c3N=C2c2ccccc21`, the GI50 is 24.9 µM (inactive) with A498; 46.3 µM (inactive) in the experiment on A549; 14 µM (inactive) in the experiment on CAKI-1; 58.6 µM with HCT-15; 10.5 µM (inactive) in the experiment on HOP-92; 3.65 µM (inactive) with KM12. Also, the GI50 is 4.42 µM (inactive) with MCF7; 13.8 µM (inactive) in the experiment with NCI-H460; 12.3 µM (inactive) in the experiment with NCI-H522; 16.7 µM (inactive) in the experiment on OVCAR-8; 11.7 µM (inactive) in the experiment on SF-539; 19.7 µM (inactive) in the experiment on SN12C. For the same compound, the GI50 is 6.67 µM (inactive) in the experiment on SNB-19; 2.92 µM (inactive) in the experiment on SNB-75; 12.3 µM (inactive) in the experiment with SW-620; 22 µM (inactive) with UACC-257; 34.9 µM (inactive) in the experiment with UO-31.

Regarding `S=C(NCCCCCCNC(=S)Nc1c2ccccc2nc2ccccc12)Nc1c2ccccc2nc2ccccc12`, the GI50 with A498 is > 91.8 µM (inactive); with A549, 87.5 µM (inactive); with CAKI-1, > 100 µM (inactive); in the experiment on HCC 2998, > 96.2 µM (inactive); in the experiment on HCT-116, 50.6 µM (inactive); in the experiment on HCT-15, 76.4 µM. In addition, the GI50 with HOP-92 is 52.4 µM (inactive); in the experiment on KM12, 10.9 µM (inactive); in the experiment with MCF7, 49 µM (inactive); with NCI-H226, 10.8 µM (inactive); in the experiment with NCI-H460 it was 43.1 µM (inactive); with NCI-H522, 64.6 µM (inactive). In addition, the GI50 in the experiment on OVCAR-8 was 89.9 µM (inactive); with SF-539, 70.1 µM (inactive); with SN12C, > 83.8 µM (inactive); in the experiment on SNB-19, > 83 µM (inactive); with SNB-75, 32.9 µM (inactive); in the experiment with SW-620, 52.8 µM (inactive). Further, the GI50 in the experiment on UACC-257 is > 90.8 µM (inactive); in the experiment with UO-31, > 86.3 µM (inactive).

As to `CO/N=C(\C)c1ccc(Nc2nc3ccccc3c3occc23)cc1`, the GI50 with A498 is 16 µM (inactive); in the experiment on A549, 17.3 µM (inactive); with CAKI-1, 16.4 µM (inactive); in the experiment with HCC 2998, 16.1 µM (inactive); in the experiment with HCT-116 it was 14.3 µM (inactive); with HCT-15 it was 15.1 µM. Also, the GI50 in the experiment on HOP-92 was 13.8 µM (inactive); with KM12, 17.6 µM (inactive); with MCF7 it was 13.8 µM (inactive); in the experiment on NCI-H226, 8.18 µM (inactive); in the experiment on NCI-H460 it was 15.6 µM (inactive); in the experiment on NCI-H522, 10.8 µM (inactive). Further, the GI50 with OVCAR-8 is 16.7 µM (inactive); in the experiment on SF-539 it was 14.2 µM (inactive); in the experiment with SN12C, 15.2 µM (inactive); in the experiment with SNB-19 it was 15.5 µM (inactive); with UACC-257 it was 17.3 µM (inactive); in the experiment with UO-31, 18.9 µM (inactive).

In the case of `COc1ccccc1-c1cc(O)c2c(C)ccnc2n1`, the GI50 with A498 was 27.6 µM (inactive); with A549, 43.7 µM (inactive); in the experiment on CAKI-1, 33 µM (inactive); in the experiment on HCC 2998, 64.9 µM (inactive); in the experiment on HCT-15, 28.4 µM; in the experiment on HOP-92, 66.7 µM (inactive). Also, the GI50 is 27.7 µM (inactive) in the experiment on KM12; 26.5 µM (inactive) in the experiment with MCF7; 15.8 µM (inactive) in the experiment with NCI-H226; 15.8 µM (inactive) with NCI-H522; 43.6 µM (inactive) with OVCAR-8; 30.8 µM (inactive) in the experiment with SF-539. Besides, the GI50 is 41 µM (inactive) in the experiment on SN12C; 26.3 µM (inactive) in the experiment with SNB-19; 12.9 µM (inactive) with SNB-75; 6.1 µM (inactive) in the experiment with SW-620; 47.9 µM (inactive) in the experiment with UACC-257; 33 µM (inactive) with UO-31.
